In patent US20240238459A1, “Granzyme-Activatable Membrane-Interacting Peptides and Methods of Use” (priority 2021, published 2024):
Peptide text beside a SMILES is read from it. * marks the point of attachment. DOTA = O=C(O)CN1CCN(CC(=O)O)CCN(CC(=O)*)CCN(CC(=O)O)CC1; Ahx = NCCCCCC(=O)O

How the values were obtained:
S. aureus = assay: PET in S. aureus myositis model; assay type: in vivo, mouse
From the text: Granzyme B responses to other bacterial strains has also been tested. Live or heat killed S. aureus were implanted into the deltoids of mice to understand immune responses on PET. […] One possibility for the difference in response is that granzyme B is not uniformly employed to attack all pathogens, and the immune cells may customize their granzyme response based on the features of the pathogen.

CT26 tumors = assay: Biodistribution in germline GZMB knockout mice bearing CT26 tumors, vehicle or CPI; assay type: in vivo, mouse
Experimental: Lastly, to confirm that GZMB is responsible for post treatment changes in ^64Cu-GRIP B biodistribution, germline homozygous GZMB knockout mice were inoculated with CT26 tumors and the relative biodistribution of ^64Cu-L-GRIP B in mice was assessed after treatment with vehicle or CPIs.
To confirm this, post treatment changes in tumoral uptake of ^64Cu-GRIP B were assessed for correlation with antitumor effects.

virus = assay: PET and biodistribution in viral pneumonia model; conditions: biodistribution; including spleen, liver and blood pool
From the text: In collaboration with the Looney lab at UCSF, mice received an intranasal instillation of virus or sham, and were imaged with ^64Cu-GRIP B at 10 days post infection (the time point at which peak recruitment of T cells to the lungs occurs).

M. marinum = assay: PET in M. marinum myositis model; assay type: in vivo, mouse
From the text: Neither M. marinum nor the L. monoctyogenes induced ^64Cu-GRIP B uptake in live bacterial abscesses compared to heat killed controls.

RAJI tumors = assay: PET/CT in mice bearing RAJI xenografts given anti-CD19 CAR T cells; assay type: in vivo, mouse
Experimental: Mice bearing subcutaneous RAJI xenografts and administered anti-CD19 CAR T cells were imaged using ^64Cu-GRIP B PET/CT. Peripheral blood mononuclear cells were obtained from normal blood donor leukoreduction filters (Vitalant Blood Services). CD4+ and CD8+ T-cells were isolated via magnetic bead selection, activated with anti-CD3/CD28 beads, lentivirally transduced with a validated anti-CD19 CAR construct, and expanded in vitro with IL-2. In parallel, mice were injected with 1e6 Raji cells subcutaneously in the right flank. At tumor size of ˜400 mm3 5e6 CAR-expressing T-cells were implanted IV into each mouse. Mice received anti-CD19 CAR T cells or empty CAR Ts. After 6 days, the mice received ^64Cu-GRIP B (˜300 uCi/mouse) and were imaged from 0-4 hours post injection. The data depicted in FIG. 7 show images and region of interest analysis gathered at 4 hours post injection.
Additionally, mice bearing orthotopic RAJI xenografts and treated with activated CAR T cell based therapy were imaged using ^64Cu-GRIP B PET/CT. Raji cells (1e5) were administered orthotopically via tail vein injection to encourage seeding in abdominal tissues. This model was evaluated as subcutaneous Raji tumors are known to be intrinsically immunosuppressive.
Peripheral blood mononuclear cells were obtained from normal blood donor leukoreduction filters (Vitalant Blood Services). […]

E. coli = assay: PET in E. coli myositis model (live vs heat killed, vs LPS); assay type: in vivo, mouse
Experimental: ^64Cu-GRIP B was also tested to determine whether it can detect granzyme B secreted from activated immune cells attempting to combat bacterial infections. A cohort of mice bearing bilateral deltoid implants of live E. coli or heat killed E. coli was established to test the kinetics of tracer uptake (FIG. 10).
Next, the granzyme B responses to live E. coli versus treatment with a bolus of the endotoxin LPS were compared. Three to four hours after implantation, mice received ^64Cu-GRIP B and were imaged serially (FIG. 12).

P. aeruginosa = assay: PET in P. aeruginosa myositis model; assay type: in vivo, mouse
From the text: Performing additional myositis studies with other bacterial strains yielded unexpected and variable granzyme “responses” on PET. […] In both mouse cohorts, radiotracer uptake in the treated muscles was higher than in the normal muscle.

With `CC[C@H](C)[C@H](NC(=O)[C@H](CCCCN)NC(=O)CNC(=O)[C@H](CC(C)C)NC(=O)[C@H](Cc1ccccc1)NC(=O)[C@H](CCCCN)NC(=O)[C@H](CO)NC(=O)[C@H](Cc1ccccc1)NC(=O)[C@H](Cc1c[nH]c2ccccc12)NC(=O)[C@H](CCC(N)=O)NC(=O)[C@@H](NC(=O)[C@H](Cc1ccccc1)NC(=O)CCCCCNC(=O)CN1CCN(CC(=O)O)CCN(CC(=O)O)CCN(CC(=O)O)CC1)C(C)C)C(=O)N[C@@H](CCC(=O)O)C(=O)N1CCC[C@H]1C(=O)N[C@@H](CC(=O)O)C(=O)N[C@H](C(=O)N[C@@H](CO)C(=O)N[C@@H](CCC(N)=O)C(=O)N[C@H](C(=O)N[C@@H](CCC(N)=O)C(=O)N[C@@H](CC(=O)O)C(=O)N1CCC[C@H]1C(=O)N[C@@H](CC(N)=O)C(=O)N[C@@H](CC(=O)O)C(=O)N[C@@H](CCC(N)=O)C(=O)N[C@@H](Cc1ccc(O)cc1)C(=O)N[C@@H](CCC(=O)O)C(=O)N1CCC[C@H]1C(=O)N[C@@H](Cc1ccccc1)C(=O)O)C(C)C)C(C)C` [^64Cu-GRIP B, metal not drawn] ({DOTA-Ahx}-FVQWFSKFLGKIEPDVSQVQDPNDQYEPF-OH) the “granzyme B response in live bacterial abscess compared to that of E. coli” value (S. aureus; S. aureus) was “more modest granzyme B response”, the “uptake in live bacterial abscess versus heat killed abscess” value (S. aureus; S. aureus) was “significantly higher” and the “time course of radiotracer uptake” value (S. aureus; S. aureus deltoid implant) was “rising rapidly from 0-6 hours post injection and plateauing from 6-24 hours”. For the same compound, the “correlation of tumoral uptake or tumor to blood ratio with percent changes in tumor volume” value (CT26 tumors; GZMB knockout mouse background) was “neither tumoral uptake nor tumor to blood ratio of ^64Cu-GRIP B correlated”, the “post treatment changes in radiotracer uptake in tumors and spleen, CPI compared to vehicle” value (CT26 tumors; germline homozygous GZMB knockout mice, CT26 tumors) was “No significant post treatment changes” and the “relative radiotracer uptake per organ, viral infection” value (virus) was “higher radiotracer uptake in numerous tissues”. For the same compound, the “radiotracer uptake compared to normal muscle” value (M. marinum) was “significant increase”, the “uptake in live bacterial abscesses compared to heat killed controls” value (M. marinum) was “did not impact” and the “uptake in tumor bearing livers” value (RAJI tumors; orthotopic RAJI tumors in liver, CD19 CAR Ts, ROI and post mortem dosimetry) was “induce ^64Cu-GRIP B uptake in tumor bearing livers”. For the same compound, the “detection of granzyme B production from activated CAR T cells” value (RAJI tumors; subcutaneous and orthotopic RAJI, anti-CD19 CAR T vs empty CAR Ts, 4 hours post injection) was “can detect granzyme B production from activated CAR T cells”, the “uptake in live abscess compared to site of heat killed bacterial implantation” value (E. coli; E. coli, bilateral deltoid implants) was “significantly higher” and the “time course of tracer uptake in the myositis lesion” value (E. coli; live E. coli deltoid implant) was “increased out to 5 hours and persisted to at least 24 hours post injection”. For the same compound, the “radiotracer uptake, live E. coli abscess versus bolus of LPS” value (E. coli; tracer three to four hours after implantation, serial imaging) was “differences in radiotracer uptake were detected from 6-24 hours post injection”, the “uptake in treated muscles versus normal muscle” value (P. aeruginosa) was “higher” and the “uptake in live bacterial infection versus contralateral heat killed bacteria” value (P. aeruginosa; deltoid muscles) was “higher”.
